Laboratory results as given in ChEMBL document CHEMBL2413072, “Synthesis and in vitro anticancer studies of novel C-2 arylidene congeners of lantadenes” (2013).

What was measured:
Type in all cases: functional
HOP-92 [1] = assay: Growth inhibition of human HOP92 cells assessed as cell growth at 10^-6 M by sulforhodamine B assay; conditions: read-out: Activity
OVCAR-5 = assay: Growth inhibition of human OVCAR5 cells assessed as cell growth at 10^-6 M by sulforhodamine B assay; conditions: read-out: Activity
PC-3 = assay: Growth inhibition of human PC3 cells assessed as cell growth at 10^-4 M by sulforhodamine B assay; conditions: read-out: Activity
MOLT-4 [2] = assay: Growth inhibition of human MOLT4 cells assessed as cell growth at 10^-6 M by sulforhodamine B assay; conditions: read-out: Activity
[3] = Growth inhibition of human HCC2998 cells assessed as cell growth at 10^-7 M by sulforhodamine B assay; conditions: HCC 2998, read-out: Activity
U-251 = assay: Growth inhibition of human U251 cells assessed as cell growth at 10^-8 M by sulforhodamine B assay; conditions: read-out: Activity
CAKI-1 [4] = assay: Growth inhibition of human CAKI-1 cells by sulforhodamine B assay
HT-29 = assay: Growth inhibition of human HT-29 cells assessed as cell growth at 10^-7 M by sulforhodamine B assay; conditions: read-out: Activity
NCI-H460 [5] = assay: Growth inhibition of human NCI-H460 cells assessed as cell growth at 10^-4 M by sulforhodamine B assay; conditions: read-out: Activity
HCT-15 [6] = assay: Growth inhibition of human HCT15 cells assessed as cell growth at 10^-8 M by sulforhodamine B assay; conditions: read-out: Activity
Malme-3M [7] = assay: Growth inhibition of human MALME-3M cells assessed as cell growth at 10^-4 M by sulforhodamine B assay; conditions: read-out: Activity
HCT-15 [8] = assay: Growth inhibition of human HCT15 cells assessed as cell growth at 10^-7 M by sulforhodamine B assay; conditions: read-out: Activity
ACHN = assay: Growth inhibition of human ACHN cells assessed as cell growth at 10^-4 M by sulforhodamine B assay; conditions: read-out: Activity
Malme-3M [9] = assay: Growth inhibition of human MALME-3M cells assessed as cell growth at 10^-6 M by sulforhodamine B assay; conditions: read-out: Activity
DU-145 = assay: Growth inhibition of human DU145 cells assessed as cell growth at 10^-6 M by sulforhodamine B assay; conditions: read-out: Activity
NCI-H226 = assay: Growth inhibition of human NCI-H226 cells assessed as cell growth at 10^-4 M by sulforhodamine B assay; conditions: read-out: Activity
SK-MEL-5 [10] = assay: Growth inhibition of human SK-MEL-5 cells by sulforhodamine B assay
NCI-H460 [11] = assay: Growth inhibition of human NCI-H460 cells assessed as cell growth at 10^-6 M by sulforhodamine B assay; conditions: read-out: Activity
HOP-62 [12] = assay: Growth inhibition of human HOP62 cells assessed as cell growth at 10^-4 M by sulforhodamine B assay; conditions: read-out: Activity
MOLT-4 [13] = assay: Growth inhibition of human MOLT4 cells by sulforhodamine B assay
SF-295 = assay: Growth inhibition of human SF295 cells assessed as cell growth at 10^-6 M by sulforhodamine B assay; conditions: read-out: Activity
NCI-H322M = assay: Growth inhibition of human NCI-H322M cells by sulforhodamine B assay
SF-268 = assay: Growth inhibition of human SF268 cells assessed as cell growth at 10^-7 M by sulforhodamine B assay; conditions: read-out: Activity
MCF7 [14] = assay: Growth inhibition of human MCF7 cells assessed as cell growth at 10^-8 M by sulforhodamine B assay; conditions: read-out: Activity
LOX IMVI = assay: Growth inhibition of human LOXIMVI cells assessed as cell growth at 10^-8 M by sulforhodamine B assay; conditions: read-out: Activity
UO-31 [15] = assay: Growth inhibition of human UO31 cells assessed as cell growth at 10^-8 M by sulforhodamine B assay; conditions: read-out: Activity
SW-620 = assay: Growth inhibition of human SW620 cells assessed as cell growth at 10^-8 M by sulforhodamine B assay; conditions: read-out: Activity
MCF7 [16] = assay: Growth inhibition of human MCF7 cells assessed as cell growth at 10^-7 M by sulforhodamine B assay; conditions: read-out: Activity
UO-31 [17] = assay: Growth inhibition of human UO31 cells by sulforhodamine B assay
SK-MEL-28 = assay: Growth inhibition of human SK-MEL-28 cells by sulforhodamine B assay
HOP-92 [18] = assay: Growth inhibition of human HOP92 cells assessed as cell growth at 10^-8 M by sulforhodamine B assay; conditions: read-out: Activity
SN12C = assay: Growth inhibition of human SN12C cells by sulforhodamine B assay
Malme-3M [19] = assay: Growth inhibition of human MALME-3M cells by sulforhodamine B assay
786-0 = assay: Growth inhibition of human 786-0 cells assessed as cell growth at 10^-6 M by sulforhodamine B assay; conditions: read-out: Activity
CAKI-1 [20] = assay: Growth inhibition of human CAKI-1 cells assessed as cell growth at 10^-6 M by sulforhodamine B assay; conditions: read-out: Activity
UO-31 [21] = assay: Growth inhibition of human UO31 cells assessed as cell growth at 10^-4 M by sulforhodamine B assay; conditions: read-out: Activity
HOP-62 [22] = assay: Growth inhibition of human HOP62 cells assessed as cell growth at 10^-7 M by sulforhodamine B assay; conditions: read-out: Activity
SNB-19 = assay: Growth inhibition of human SNB19 cells assessed as cell growth at 10^-7 M by sulforhodamine B assay; conditions: read-out: Activity
SK-MEL-5 [23] = assay: Growth inhibition of human SK-MEL-5 cells assessed as cell growth at 10^-8 M by sulforhodamine B assay; conditions: read-out: Activity
SK-MEL-2 = assay: Growth inhibition of human SK-MEL-2 cells assessed as cell growth at 10^-7 M by sulforhodamine B assay; conditions: read-out: Activity
[24] = read-out: LC50 (the source's name)
[25] = read-out: pLC50 (the source's name) (converted)

## CC(C)=CC(=O)O[C@@H]1CC(C)(C)C[C@H]2C3=CC[C@@H]4[C@@]5(C)CC[C@H](O)C(C)(C)[C@@H]5CC[C@@]4(C)[C@]3(C)CC[C@@]12C(=O)O [Reduced Lantadene B]
HOP-92 [1]
  growth at 1 µM: 70%
OVCAR-5
  growth at 1 µM: 106%
PC-3
  growth at 100 µM: -71%
MOLT-4 [2]
  growth at 1 µM: 78%
[3]
  growth at 0.1 µM: 99%
U-251
  growth at 0.01 µM: 96%
CAKI-1 [4]; read-out: GI50
  GI50: 3.39 µM
CAKI-1 [4]; [24]
  CC50: > 100 µM
CAKI-1 [4]; read-out: TGI
  TGI: 46.8 µM
CAKI-1 [4]; read-out: pGI50 (converted)
  GI50: 3.39 µM
CAKI-1 [4]; [25]
  CC50: > 100 µM
CAKI-1 [4]; read-out: pTGI (converted)
  TGI: 46.8 µM
HT-29
  growth at 0.1 µM: 95%
NCI-H460 [5]
  growth at 100 µM: -4%
HCT-15 [6]
  growth at 0.01 µM: 93%
Malme-3M [7]
  growth at 100 µM: -46%
HCT-15 [8]
  growth at 0.1 µM: 87%
ACHN
  growth at 100 µM: -75%
Malme-3M [9]
  growth at 1 µM: 104%
DU-145
  growth at 1 µM: 94%
NCI-H226
  growth at 100 µM: -56%
SK-MEL-5 [10]; read-out: GI50
  GI50: 2.86 µM
SK-MEL-5 [10]; [24]
  CC50: 66.7 µM
SK-MEL-5 [10]; read-out: TGI
  TGI: 16.5 µM
SK-MEL-5 [10]; read-out: pGI50 (converted)
  GI50: 2.88 µM
SK-MEL-5 [10]; [25]
  CC50: 66.1 µM
SK-MEL-5 [10]; read-out: pTGI (converted)
  TGI: 16.6 µM
NCI-H460 [11]
  growth at 1 µM: 78%
HOP-62 [12]
  growth at 100 µM: -60%
MOLT-4 [13]; read-out: GI50
  GI50: 3.02 µM
MOLT-4 [13]; [24]
  CC50: > 100 µM
MOLT-4 [13]; read-out: TGI
  TGI: 20.6 µM
MOLT-4 [13]; read-out: pGI50 (converted)
  GI50: 3.02 µM
MOLT-4 [13]; [25]
  CC50: > 100 µM
MOLT-4 [13]; read-out: pTGI (converted)
  TGI: 20.4 µM
SF-295
  growth at 1 µM: 59%
NCI-H322M; read-out: GI50
  GI50: 3.62 µM
NCI-H322M; read-out: LC50
  LC50 (50% lethal concentration): 58 µM
NCI-H322M; read-out: TGI
  TGI: 15 µM
NCI-H322M; read-out: pGI50 (converted)
  GI50: 3.63 µM
NCI-H322M; read-out: pLC50 (converted)
  LC50 (50% lethal concentration): 57.5 µM
NCI-H322M; read-out: pTGI (converted)
  TGI: 15.1 µM
SF-268
  growth at 0.1 µM: 93%
MCF7 [14]
  growth at 0.01 µM: 97%
LOX IMVI
  growth at 0.01 µM: 98%
UO-31 [15]
  growth at 0.01 µM: 89%
SW-620
  growth at 0.01 µM: 102%
MCF7 [16]
  growth at 0.1 µM: 98%
UO-31 [17]; read-out: GI50
  GI50: 3.69 µM
UO-31 [17]; [24]
  CC50: 45.4 µM
UO-31 [17]; read-out: TGI
  TGI: 15.5 µM
UO-31 [17]; read-out: pGI50 (converted)
  GI50: 3.72 µM
UO-31 [17]; [25]
  CC50: 45.7 µM
UO-31 [17]; read-out: pTGI (converted)
  TGI: 15.5 µM
SK-MEL-28; read-out: GI50
  GI50: 4.89 µM
SK-MEL-28; [24]
  CC50: 70.1 µM
SK-MEL-28; read-out: TGI
  TGI: 20.4 µM
SK-MEL-28; read-out: pGI50 (converted)
  GI50: 4.9 µM
SK-MEL-28; [25]
  CC50: 70.8 µM
SK-MEL-28; read-out: pTGI (converted)
  TGI: 20.4 µM
HOP-92 [18]
  growth at 0.01 µM: 91%
SN12C; read-out: GI50
  GI50: 2.88 µM
SN12C; [24]
  CC50: 37 µM
SN12C; read-out: TGI
  TGI: 10.9 µM
SN12C; read-out: pGI50 (converted)
  GI50: 2.88 µM
SN12C; [25]
  CC50: 37.2 µM
SN12C; read-out: pTGI (converted)
  TGI: 11 µM
Malme-3M [19]; read-out: GI50
  GI50: 13.7 µM
Malme-3M [19]; [24]
  CC50: > 100 µM
Malme-3M [19]; read-out: TGI
  TGI: 38.6 µM
Malme-3M [19]; read-out: pGI50 (converted)
  GI50: 13.8 µM
Malme-3M [19]; [25]
  CC50: > 100 µM
Malme-3M [19]; read-out: pTGI (converted)
  TGI: 38.9 µM
786-0
  growth at 1 µM: 93%
CAKI-1 [20]
  growth at 1 µM: 85%
UO-31 [21]
  growth at 100 µM: -87%
HOP-62 [22]
  growth at 0.1 µM: 87%
SNB-19
  growth at 0.1 µM: 86%
SK-MEL-5 [23]
  growth at 0.01 µM: 93%
SK-MEL-2
  growth at 0.1 µM: 95%
